pIC50: −log10 of the molar value.
How the values were obtained:
[1] = Inhibition of ND1 transcript level in human A2780 cells at 500 nM measured after 12 hrs by RT-qPCR analysis relative to control; type: functional
A2780 = experiment: Antiproliferative activity against human A2780 cells incubated for 168 hrs by SRB method; type: functional, cell-based; conditions: A2780, 168 h
[2] = Apparent permeability across apical to basolateral side in human Caco-2 cells at 3 uM incubated for 2 hrs by LC-MS/MS analysis; type: ADME, cell-based

Row | Structure (SMILES) | inhibition at 0.5 µM [1] [%] | pIC50 (A2780) | Papp A→B at 2 h, 3 µM [2] [×10⁻⁶ cm/s]
1 | O=C(O)[C@H]1CCCN(C(=O)C(F)(F)Oc2ccc3c(-c4ccc(F)cc4Cl)cc(=O)oc3c2)C1 | 37 | 6.49 | –
2 | CC(=O)NCCNC(=O)[C@@H](C)Oc1ccc2c(-c3ccc(F)cc3Cl)cc(=O)oc2c1 | 26 | 6.74 | –
3 | Nc1cc(N2CCCCC2)nc(N)[n+]1[O-] [MINOXIDIL] | – | – | 6.79
4 | C[C@@H](Oc1ccc2c(-c3ccc(F)cc3Cl)cc(=O)oc2c1)C(=O)NCCN(C)C | 31 | 6.70 | –
5 | C[C@@H](Oc1cccc(-c2ccc(F)cc2Cl)c1)C(=O)N1CCC[C@H](C(=O)O)C1 | 95 | < 5.00 | –
6 | C[C@@H](Oc1ccc2c(-c3ccc(F)cc3Cl)cc(=O)oc2c1)C(=O)NCCO | 23 | 6.87 | –
7 | C[C@@H](Oc1ccc2c(-c3ccc(F)cc3Cl)cc(=O)oc2c1)C(=O)NCc1ccco1 | 41 | 6.39 | –
8 | C[C@H](Oc1ccc2c(-c3ccc(F)cc3Cl)cc(=O)oc2c1)C(=O)N1CCC[C@H](C(=O)O)C1 | 34 | 6.54 | –
9 | C[C@@H](Oc1ccc2c(-c3ccc(Cl)cc3Cl)cc(=O)oc2c1)C(=O)N1CC2CCC(C1)N2 | 24 | 7.25 | –
10 | Cc1ccc(-c2cc(=O)oc3cc(O[C@H](C)C(=O)N4CC5CCC(C4)N5)ccc23)c(Cl)c1 | 28 | 6.88 | –
11 | O=C(O)[C@H]1CCCN(C(=O)C2(Oc3ccc4c(-c5ccc(F)cc5Cl)cc(=O)oc4c3)CCC2)C1 | 42 | 6.16 | –
12 | C[C@@H](Oc1ccc2c(-c3ccc(F)cc3Cl)cc(=O)oc2c1)C(=O)NCCN1CCS(=O)(=O)CC1 | 86 | 5.60 | –
13 | O=C(O)[C@H]1CCCN(C(=O)C2CC(Oc3ccc4c(-c5ccc(F)cc5Cl)cc(=O)oc4c3)C2)C1 (stereo not given in full) | 101 | < 5.00 | –
14 | C[C@@H](Oc1ccc2c(-c3ccc(F)cc3Cl)ncnc2c1)C(=O)N1CCC[C@H](C(=O)O)C1 | 93 | < 5.00 | –
15 | C[C@@H](Oc1ccc2c(-c3ccc(F)cc3Cl)cc(=O)oc2c1)C(=O)NCCC1CCOCC1 | 73 | 6.09 | –
16 | C[C@@H](Oc1ccc2c(-c3ccc(F)cc3Cl)cc(=O)oc2c1)C(=O)Nc1ncco1 | 81 | 5.91 | –
17 | C[C@@H](Oc1ccc2c(-c3cccc(F)c3)cc(=O)oc2c1)C(=O)N1CC2CCC(C1)N2 | 75 | 6.06 | –
18 | C[C@@H](Oc1ccc2c(-c3ccc(F)cc3Cl)cc(=O)oc2c1)C(=O)NCCCO | 22 | 6.75 | –
19 | C[C@@H](Oc1ccc2c(-c3ccc(F)cc3Cl)cccc2c1)C(=O)N1CCC[C@H](C(=O)O)C1 | 45 | 6.19 | –
20 | C[C@@H](Oc1ccc2c(-c3ccc(F)cc3Cl)cc(=O)oc2c1)C(=O)N1CCN(C)CC1 | 28 | 6.76 | –
21 | C[C@@H](Oc1ccc2c(C3CCCCC3)cc(=O)oc2c1)C(=O)N1CC2CCC(C1)N2 | 31 | 6.60 | –

Row | Structure (SMILES) | inhibition at 0.5 µM [1] [%] | pIC50 (A2780) | Papp A→B at 2 h, 3 µM [2] [×10⁻⁶ cm/s]
22 | O=C(O)[C@H]1CCCN(C(=O)COc2ccc3c(-c4ccc(F)cc4Cl)cc(=O)oc3c2)C1 | 39 | 6.43 | –
23 | C[C@@H](Oc1ccc2c(-c3ccc(F)cc3Cl)cc(=O)oc2c1)C(=O)N1CC2(COC2)C1 | 68 | 6.12 | –
24 | C[C@@H](Oc1ccc2c(-c3ccc(F)cc3)cc(=O)oc2c1)C(=O)N1CC2CCC(C1)N2 | 44 | 6.34 | –
25 | C[C@@H](Oc1ccc(C(=O)c2ccc(F)cc2Cl)cc1)C(=O)N1CCC[C@H](C(=O)O)C1 | 99 | < 5.00 | –
26 | C[C@@H](Oc1ccc2c(-c3ccc(F)cc3Cl)cc(=O)[nH]c2c1)C(=O)N1CCC[C@H](C(=O)O)C1 | 88 | < 5.00 | –
27 | C[C@@H](Oc1ccc2c(-c3cc4ccccc4s3)cc(=O)oc2c1)C(=O)N1CC2CCC(C1)N2 | 85 | 5.79 | –
28 | C[C@@H](Oc1ccc2c(-c3ccc(F)cc3Cl)cc(=O)oc2c1)C(=O)N1CC2CC(C1)N2 | 24 | 6.95 | –
29 | C[C@@H](Oc1ccc2c(-c3ccc(F)cc3Cl)cc(=O)oc2c1)C(=O)N1CCOCC1 | 25 | 7.03 | –
30 | COCCNC(=O)[C@@H](C)Oc1ccc2c(-c3ccc(F)cc3Cl)cc(=O)oc2c1 | 25 | 6.82 | –
31 | C[C@@H](Oc1ccc2c(C34C[C@H]5C[C@H](C3)C[C@@H](C4)C5)cc(=O)oc2c1)C(=O)N1CC2CCC(C1)N2 | 22 | 7.04 | –
32 | C[C@@H](Oc1ccc2c(-c3ccc(F)cc3Cl)cc(=O)oc2c1)C(=O)NCCN | 26 | 6.55 | –
33 | Cc1cc(Cl)ccc1-c1cc(=O)oc2cc(O[C@H](C)C(=O)N3CC4CCC(C3)N4)ccc12 | 12 | 7.24 | –
34 | C[C@@H](Oc1ccc2c(-c3ccc(F)cc3Cl)cc(=O)oc2c1)C(=O)N1C2CCC1CNC2 | 15 | 7.19 | –
35 | C[C@@H](Oc1ccc2c(-c3ccc(F)cc3Cl)cc(=O)oc2c1)C(=O)NCCN1CCOCC1 | 82 | 5.91 | –
36 | Cc1ccc(-c2cc(=O)oc3cc(O[C@H](C)C(=O)N4CC5CCC(C4)N5)ccc23)cc1 | 11 | 7.21 | –
37 | C[C@@H](Oc1ccc2c(-c3cccc4ccccc34)cc(=O)oc2c1)C(=O)N1CC2CCC(C1)N2 | 67 | 6.25 | –
38 | C[C@@H](Oc1ccc2c(-c3ccccc3Cl)cc(=O)oc2c1)C(=O)N1CC2CCC(C1)N2 | 15 | 7.28 | –
39 | C[C@@H](Oc1ccc2c(-c3ccc(F)cc3Cl)cc(=O)oc2c1)C(=O)N1CCS(=O)(=O)CC1 | 35 | 6.54 | –
40 | C[C@@H](Oc1ccc2c(-c3ccc(F)cc3Cl)cc(=O)oc2c1)C(=O)N1CC2CCC(C1)N2 | 8 | 7.37 | –
41 | CC(=O)N1CCN(C(=O)[C@@H](C)Oc2ccc3c(-c4ccc(F)cc4Cl)cc(=O)oc3c2)CC1 | 27 | 6.65 | –
42 | Cc1cc(F)ccc1-c1cc(=O)oc2cc(O[C@H](C)C(=O)N3CC4CCC(C3)N4)ccc12 | 12 | 7.38 | –

Row | Structure (SMILES) | inhibition at 0.5 µM [1] [%] | pIC50 (A2780) | Papp A→B at 2 h, 3 µM [2] [×10⁻⁶ cm/s]
43 | C[C@@H](Oc1ccc2c(-c3ccc(F)cc3Cl)cc(=O)oc2c1)C(=O)N1CCSCC1 | 34 | 6.52 | –
44 | C[C@@H](CO)NC(=O)[C@@H](C)Oc1ccc2c(-c3ccc(F)cc3Cl)cc(=O)oc2c1 | 32 | 6.68 | –
45 | Cc1cccc(-c2cc(=O)oc3cc(O[C@H](C)C(=O)N4CC5CCC(C4)N5)ccc23)c1 | 25 | 6.90 | –
46 | Cc1cc(C)c(-c2cc(=O)oc3cc(O[C@H](C)C(=O)N4CC5CCC(C4)N5)ccc23)c(C)c1 | 16 | 7.13 | –
47 | CC(C)(Oc1ccc2c(-c3ccc(F)cc3Cl)cc(=O)oc2c1)C(=O)N1CCC[C@H](C(=O)O)C1 | 43 | 6.25 | –
48 | Cc1ccccc1-c1cc(=O)oc2cc(O[C@H](C)C(=O)N3CC4CCC(C3)N4)ccc12 | 8 | 7.51 | –
49 | C[C@@H](Oc1ccc2c(-c3ccncc3)cc(=O)oc2c1)C(=O)N1CC2CCC(C1)N2 | 78 | 6.08 | –
50 | C[C@@H](Oc1ccc2c(-c3ccccc3)cc(=O)oc2c1)C(=O)N1CC2CCC(C1)N2 | 43 | 6.37 | –
51 | C[C@@H](Oc1ccc2c(-c3ccc(F)cc3Cl)csc2c1)C(=O)N1CCC[C@H](C(=O)O)C1 | 89 | < 5.00 | –
52 | C[C@@H](Oc1ccc2c(ccn2-c2ccc(F)cc2Cl)c1)C(=O)N1CCC[C@H](C(=O)O)C1 | 97 | < 5.00 | –
53 | C[C@@H](Oc1ccc2c(-c3ccc(F)cc3Cl)coc2c1)C(=O)N1CCC[C@H](C(=O)O)C1 | 105 | < 5.00 | –
54 | C[C@@H](Oc1ccc2c(-c3cccc(Cl)c3)cc(=O)oc2c1)C(=O)N1CC2CCC(C1)N2 | 32 | 6.61 | –
55 | C[C@@H](Oc1ccc2c(-c3ccc(F)cc3Cl)cc(=O)oc2c1)C(=O)N1CCNCC1 | 25 | 6.91 | –
56 | C[C@@H](Oc1ccc2c(-c3ccc(F)cc3Cl)cc(=O)oc2c1)C(=O)N1CCC[C@H]1CO | 42 | 6.36 | –
57 | C[C@@H](Oc1ccc2c(-c3ccccc3F)cc(=O)oc2c1)C(=O)N1CC2CCC(C1)N2 | 33 | 6.67 | –
58 | CC(C)c1cc(=O)oc2cc(O[C@H](C)C(=O)N3CC4CCC(C3)N4)ccc12 | 93 | 5.65 | –
59 | C[C@@H](Oc1ccc2c(-c3ccc(F)cc3Cl)cc(=O)oc2c1)C(=O)Nc1ccccn1 | 77 | 6.05 | –
60 | C[C@@H](Oc1ccc2c(-c3ccc(Cl)cc3)cc(=O)oc2c1)C(=O)N1CC2CCC(C1)N2 | 24 | – | –
61 | C[C@@H](Oc1ccc2c(-c3ccsc3)cc(=O)oc2c1)C(=O)N1CC2CCC(C1)N2 | 24 | 6.89 | –

Source: ChEMBL document CHEMBL5380844, “Discovery of a Novel, Potent, Orally Active, and Safe Inhibitor Targeting Human Mitochondrial RNA Polymerase” (J Med Chem, 2023)
